Like-named read-outs stand apart in the source and are kept apart here.

The subject of data set [1] is p53, p21, PUMA, NOXA in HCT116 p53^+/+ cells. The data set is described as follows: Western blotting of p53, p21, PUMA, NOXA. As to conditions: 12.5 μM, 48 h. The format is cell-based. How it is done:
The primary antibodies were from Santa Cruz Biotechnology (p53), Calbiochem (p21, PUMA and NOXA) and Sigma-Aldrich (β-actin), and secondary antibodies conjugated with horseradish peroxidase from Calbiochem.
T-test was performed for statistical analysis, * standing for p<0.05, *** for p<0.001. The data are the means±SD of three independent Western blotting assays.

For data set [2] the following is noted: end of three-week treatment.
Data set [3] can be described thus: Complete blood cell analysis after 21-day treatment. As to conditions: end of three-week treatment.
Procedure: (§1) Statistical analysis was performed using T-test, NS standing for no significant difference.
The next data set deals with HCT 116 p53^+/+ cells. Kind of data set: Cellular uptake by flow cytometry and confocal microscopy. The format is cell-based. How it is done: HCT 116 p53^+/+ cells were seeded in a 12-well plate at a density of 30,000 cells/well, cultured for 24 h, and treated with peptide or protein at 10 μM for 4 h before flow cytometric analysis.
Hoechst 33342 blue dye was used for nuclei staining.
Peptide/protein internalization and cytosolic release were also examined using both confocal microscopy and flow cytometry.
Cationic cell penetrating peptides as a carrier are known to promote cellular uptake of cargos primarily through the […], which is inhibited by heparin but not by amiloride. To better understand the mechanism of cellular uptake of ^PMIBcr/Abl-R6, confocal microscopic analysis was performed on cells treated with heparin or amiloride.
Background: In flow cytometry, cells or beads pass a laser one at a time.

The subject of data set [4] is HCT116 p53^+/+ cells. The data set is described as follows: Cell viability (CCK-8), HCT116 p53^+/+. The format is cell-based. As to conditions: 48 h after treatment, 1.56 μM to 50 μM.
Procedure: (§2) Following a 2-h incubation with CCK-8 reagents, absorbance values at 450 nm were measured on a microplate reader, and percent cell viability was calculated as (Atreatment−Ablank)/(Acontrol−Ablank)×100%. The data are the means of three independent assays.
Three independent assays were performed.
Data set [5] relates to HCT116 p53^+/+ xenograft tumors. Kind of data set: Tumor growth inhibition in nude mouse xenograft model. The format is in vivo, BALB/c nude mice. As to conditions: 5 mg/Kg subcutaneous every other day, 3 weeks.
The test system is the same in data set [6]. Kind of data set: Histopathology of xenograft tumors (H&E and TUNEL staining). As to conditions: tumors after three-week treatment, 5 mg/Kg. The format is in vivo, BALB/c nude mice.
Source text: Representative tumors from each treatment group were fixed with formaldehyde, dehydrated and sliced into 5 μm-thick sections, and subjected to H&E staining according to standard protocols (scale bar: 50 μm).
FIG. 7F is the terminal deoxynucleotidyl transferase dUTP nick end labeling (TUNEL) assay to stain fragmented DNA in apoptotic cells (scale bar: 50 μm).
Data set [7] concerns the molecule itself. The data set is described as follows: self-association into tetramer; SEC, DLS, fluorescence polarization, SAXS.
The subject of data set [8] is HCT116 p53^+/+ cells. The data set is described as follows: Apoptosis by flow cytometry (annexin V / propidium iodide). The format is cell-based. As to conditions: 12.5 μM, 48 h. How it is done: Apoptosis was detected using a standard apoptotic kit from Biolegend, including APC labeled anti-annexin V antibody and a propidium iodide solution.
Three independent FACS assays were performed, and data are shown as the means±SD (n=3). p values were calculated by t-test (***, p<0.001).

The conditions of data set [9]: mouse, in vivo.
Procedure: as §1
Data set [10] concerns the target T1, MDM2 (p53-binding domain) (UniProt Q00987 25-109, limits assumed).
T1 construct: The ITC legends say only 'MDM2'
Kind of data set: ITC, MicroCal ITC 200, 25° C., 20 mM Tris/HCl pH 7.4.

The next data set relates to HCT116 p53^−/− cells. The data set is described as follows: Cell viability (CCK-8), HCT116 p53^−/−. As to conditions: 48 h after treatment.

T1 sequence (Q00987 25-109 limits assumed): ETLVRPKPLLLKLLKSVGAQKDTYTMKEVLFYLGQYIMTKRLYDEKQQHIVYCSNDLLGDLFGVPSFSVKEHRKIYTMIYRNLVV
Procedure for HCT116 p53^−/− cells: as §2

As to `COc1ccc(C2=N[C@@H](c3ccc(Cl)cc3)[C@@H](c3ccc(Cl)cc3)N2C(=O)N2CCNC(=O)C2)c(OC(C)C)c1` [Nutlin-3, reference compound], in data set [1], the “expression of p21, PUMA and NOXA (Western blotting)” value is given as “upregulation”; the “p53 level (Western blotting)” value is reported as “significantly stabilized p53”. The “toxicity to liver and kidney tissues (H&E)” value (“toxicity” for short) in [2] is listed as “no overt toxicity”. Moreover, the “blood cell counts (WBC, LYM, MID, GRN, RBC, PLT) versus mock-treated control” value in data set [3] is listed as “no statistically significant difference”.

“^PMIBcr/Abl-R6: Bcr/Abl tetramerization domain with PMI grafted in place of residues 5-16, C-terminally extended by Arg-repeating hexapeptide (R6); 78 residues, tetramer”: in the data set on HCT 116 p53^+/+ cells (BDP TR-labeled, 10 μM, 4 h), the “cellular uptake (flow cytometry)” value is on record as “much more efficiently” and the “cytosolic distribution (confocal microscopy)” value is given as “cytosolic distribution”. In the data set with HCT 116 p53^+/+ cells (amiloride 3 mM, 12 h before addition), the “effect of amiloride on internalization” value is recorded as “little effect”. In addition, in the data set with HCT 116 p53^+/+ cells (heparin sodium 5 mM, 12 h before addition), the “effect of heparin on internalization” value is given as “almost completely blocked it”. Besides, the “cell viability / growth inhibition” value in the data set with HCT116 p53^+/+ cells [4] is “dose-dependent growth inhibition”. Besides, in data set [1], the “expression of p21, PUMA and NOXA (Western blotting)” value is “upregulation”; the “p53 level (Western blotting)” value is “significantly stabilized p53”. The “effect on tumor growth” value in data set [5] is “significantly inhibited it”. Besides, the “necrotic and apoptotic tumor cells (H&E and TUNEL)” value (“necrotic and apoptotic tumor cells” for short) in data set [6] was “massive necrotic and apoptotic tumor cells”.

B1: ^PMIBcr/Abl-R6 (designed binder)
chain: MVDPTSFAEYWALLSPDSEPPRMELRSVGDIEQELERAKASIRRLEQEVNQERFRMIYLQTLLAKEKKSYDRRRRRRR
notes: Bcr/Abl tetramerization domain with PMI grafted in place of residues 5-16 and a C-terminal Arg hexapeptide (R6); 78 residues, chemically synthesized by native chemical ligation; Exists as a tetramer in aqueous buffer
With B1, the binding result in [7] is reported as “binds”.

B2: Bcr/Abl-R6 (other)
chain: MVDPVGFAEAWKAQFPDSEPPRMELRSVGDIEQELERAKASIRRLEQEVNQERFRMIYLQTLLAKEKKSYDRRRRRRR
notes: Negative control scaffold without the PMI graft: Bcr/Abl tetramerization domain with C-terminal R6; Chemically synthesized; tetramer in aqueous buffer
Take B2: the “cell viability / growth inhibition” value with HCT116 p53^+/+ cells [4] is “neither PMI nor Bcr/Abl-R6 had any effect on the viability”. The “apoptosis (FACS)” value in the data set with HCT116 p53^+/+ cells [8] is on record as “largely unaffected”. Moreover, the “effect on tumor growth” value in data set [5] is listed as “no effect on tumor growth”. In addition, in data set [6], the “necrotic and apoptotic tumor cells” value is “lack of activity”. In addition, the “blood cell counts (WBC, LYM, MID, GRN, RBC, PLT) versus mock-treated control” value in data set [9] is “no statistically significant difference”. For the same molecule, in data set [2], the “toxicity” value was “no overt toxicity”. Moreover, in data set [10], the binding result was “no binding”. For the same molecule, in the data set on HCT116 p53^−/− cells, the cell viability result is “neither PMI nor Bcr/Abl-R6 had any effect on the viability”.

B3: ^PMIBcr/Abl: Bcr/Abl tetramerization domain with PMI grafted in place of residues 5-16, without R6; negative control (protein)
chain: MVDPTSFAEYWALLSPDSEPPRMELRSVGDIEQELERAKASIRRLEQEVNQERFRMIYLQTLLAKEKKSYDR
As for B3, the “effect on tumor growth” value in data set [5] was “marginally active”. In addition, the “necrotic and apoptotic tumor cells” value in data set [6] was “partial activity”. Also, in [9], the “blood cell counts (WBC, LYM, MID, GRN, RBC, PLT) versus mock-treated control” value is “no statistically significant difference”. Moreover, the “toxicity” value in [2] is given as “no overt toxicity”.

Source of the values: patent US20220127335A1, “TETRAMERIC PROTEIN SCAFFOLDS AS NANO-CARRIERS OF THERAPEUTIC PEPTIDES FOR TREATING CANCER AND OTHER DISEASES” (UNIVERSITY OF MARYLAND, BALTIMORE, priority 2019, published 2022).
